Measured values published in patent publication USH1923H, “Herbicidal (oxaalkyl) phenyl-substituted heterocycles” (FMC Corporation, priority 1998, dated 2000).

Legend:
soybean [1] = assay: preemergence herbicidal activity on soybean; format: in vivo, Glycine max var. Winchester; conditions: Glycine max, pre-emergence, 0.3 Kg/Ha, after 12-17 days, read-out: PREEMERGENCE HERBICIDAL ACTIVITY (% CONTROL) SOY
Experimental: (§1) The (oxaalkyl)phenyl-substituted heterocycles of this invention were tested for pre- and postemergence herbicidal activity using a variety of crops and weeds. The test plants included soybean (Glycine max var. Winchester),field corn (Zea mays var. Pioneer 3732), wheat (Triticum aestivum var. Lew), morningglory (Ipomea lacunosa or Ipomea hederacea), […] (Abutilon theophrasti), green foxtail (Setaria viridis), Johnsongrass (Sorghum halepense), blackgrass (Aloepecurus myosuroides), common chickweed (Stellaria media), and common cocklebur (Xanthium strumarium L.).
(§2) For preemergence testing, two disposable fiber flats (8 cm×15 cm×25 cm) for each rate of application of each candidate herbicide were filled to an approximate depth of 6.5 cm with steam-sterilized sandy loam soil. The soil was leveled and impressed with a template to provide five evenly spaced furrows 13 cm long and 0.5 cm deep in each flat. Seeds of soybean, wheat, corn, green foxtail, and johnsongrass were planted in the furrows of the first flat, and seeds of velvetleaf, morningglory, common chickweed, cocklebur, and blackgrass were planted in the furrows of the second flat. The five-row template was employed to firmly press the seeds into place. A topping soil of equal portions of sand and sandy loam soil was placed uniformly on top of each flat to a depth of approximately 0.5 cm. Flats for postemergence testing were prepared in the same manner except that they were planted 9-14 days prior to the preemergence flats and were placed in a greenhouse and watered, thus allowing the seeds to germinate and the foliage to develop.
(§3) In both pre- and postemergence tests, a stock solution of the candidate herbicide was prepared by dissolving 0.27 g of the compound in 20 mL of water/acetone (50/50) containing 0.5% v/v sorbitan monolaurate. For an application rate of 3000 g/ha of herbicide a 10 mL portion of the stock solution was diluted with water/acetone (50/50) to 45 mL.
(§4) The preemergence flats were initially subjected to a light water spray. The four flats were placed two by two along a conveyor belt (i.e., the two preemergence followed by the two postemergence flats). The conveyor belt fed under a spray nozzle mounted about ten inches above the postemergent foliage. The preemergent flats were elevated on the belt so that the soil surface was at the same level below the spray nozzle as the foliage canopy of the postemergent plants. The spray of herbicidal solution was commenced and once stabilized, the flats were passed under the spray at a speed to receive a coverage equivalent of 1000 L/ha. At this coverage the application rates are those shown in the above table for the individual herbicidal solutions. The preemergence flats were watered immediately thereafter, placed in the greenhouse and watered regularly at the soil surface. The postemergence flats were immediately placed in the green-house and not watered until 24 hours after treatment with the test solution. Thereafter they were regularly watered at ground level. After 12-17 days the plants were examined and the phytotoxicity data were recorded.
(§5) Phytotoxicity data were taken as percent control. Percent control was by a method similar to the 0 to 1 00 rating system disclosed in "Research Methods in Weed Science," 2nd ed., B. Truelove, Ed.; Southern Weed Science Society; Auburn University, Auburn, Ala., 1977.

wheat [2] = assay: preemergence herbicidal activity on wheat; format: in vivo, Triticum aestivum var. Lew; conditions: Triticum aestivum, pre-emergence, 0.3 Kg/Ha, after 12-17 days, read-out: PREEMERGENCE HERBICIDAL ACTIVITY (% CONTROL) WHT
Experimental: as §1, §2, §3, §4, §5

corn [3] = assay: preemergence herbicidal activity on corn; format: in vivo, Zea mays var. Pioneer 3732; conditions: Zea mays, pre-emergence, 0.3 Kg/Ha, after 12-17 days, read-out: PREEMERGENCE HERBICIDAL ACTIVITY (% CONTROL) CRN
Experimental: as §1, §2, §3, §4, §5

velvetleaf [4] = assay: preemergence herbicidal activity on velvetleaf; format: in vivo; conditions: Abutilon theophrasti, pre-emergence, 0.3 Kg/Ha, after 12-17 days, read-out: PREEMERGENCE HERBICIDAL ACTIVITY (% CONTROL) ABUTH
Experimental: as §1, §2, §3, §4, §5

morningglory [5] = assay: preemergence herbicidal activity on morningglory; format: in vivo, Ipomea lacunosa or Ipomea hederacea; conditions: Ipomoea, pre-emergence, 0.3 Kg/Ha, after 12-17 days, read-out: PREEMERGENCE HERBICIDAL ACTIVITY (% CONTROL) IPOSS
Experimental: as §1, §2, §3, §4, §5

chickweed [6] = assay: preemergence herbicidal activity on chickweed; format: in vivo; conditions: Stellaria media, pre-emergence, 0.3 Kg/Ha, after 12-17 days, read-out: PREEMERGENCE HERBICIDAL ACTIVITY (% CONTROL) STEME
Experimental: as §1, §2, §3, §4, §5

blackgrass [7] = assay: preemergence herbicidal activity on blackgrass; format: in vivo, Aloepecurus myosuroides; conditions: Alopecurus myosuroides, pre-emergence, 0.3 Kg/Ha, after 12-17 days, read-out: PREEMERGENCE HERBICIDAL ACTIVITY (% CONTROL) ALOMY
Experimental: as §1, §2, §3, §4, §5

green foxtail [8] = assay: preemergence herbicidal activity on green foxtail; format: in vivo; conditions: Setaria viridis, pre-emergence, 0.3 Kg/Ha, after 12-17 days, read-out: PREEMERGENCE HERBICIDAL ACTIVITY (% CONTROL) SETVI
Experimental: as §1, §2, §3, §4, §5

johnsongrass [9] = assay: preemergence herbicidal activity on johnsongrass; format: in vivo; conditions: Sorghum halepense, pre-emergence, 0.3 Kg/Ha, after 12-17 days, read-out: PREEMERGENCE HERBICIDAL ACTIVITY (% CONTROL) SORHA
Experimental: as §1, §2, §3, §4, §5

soybean [10] = assay: postemergence herbicidal activity on soybean; format: in vivo, Glycine max var. Winchester; conditions: Glycine max, post-emergence, 0.3 Kg/Ha, after 12-17 days, read-out: POSTEMERGENCE HERBICIDAL ACTIVITY (% CONTROL) SOY
Experimental: as §1, §2, §3, §4, §5

wheat [11] = assay: postemergence herbicidal activity on wheat; format: in vivo, Triticum aestivum var. Lew; conditions: Triticum aestivum, post-emergence, 0.3 Kg/Ha, after 12-17 days, read-out: POSTEMERGENCE HERBICIDAL ACTIVITY (% CONTROL) WHT
Experimental: as §1, §2, §3, §4, §5

corn [12] = assay: postemergence herbicidal activity on corn; format: in vivo, Zea mays var. Pioneer 3732; conditions: Zea mays, post-emergence, 0.3 Kg/Ha, after 12-17 days, read-out: POSTEMERGENCE HERBICIDAL ACTIVITY (% CONTROL) CRN
Experimental: as §1, §2, §3, §4, §5

velvetleaf [13] = assay: postemergence herbicidal activity on velvetleaf; format: in vivo; conditions: Abutilon theophrasti, post-emergence, 0.3 Kg/Ha, after 12-17 days, read-out: POSTEMERGENCE HERBICIDAL ACTIVITY (% CONTROL) ABUTH
Experimental: as §1, §2, §3, §4, §5

morningglory [14] = assay: postemergence herbicidal activity on morningglory; format: in vivo, Ipomea lacunosa or Ipomea hederacea; conditions: Ipomoea, post-emergence, 0.3 Kg/Ha, after 12-17 days, read-out: POSTEMERGENCE HERBICIDAL ACTIVITY (% CONTROL) IPOSS
Experimental: as §1, §2, §3, §4, §5

chickweed [15] = assay: postemergence herbicidal activity on chickweed; format: in vivo; conditions: Stellaria media, post-emergence, 0.3 Kg/Ha, after 12-17 days, read-out: POSTEMERGENCE HERBICIDAL ACTIVITY (% CONTROL) STEME
Experimental: as §1, §2, §3, §4, §5

cocklebur = assay: postemergence herbicidal activity on cocklebur; format: in vivo, Xanthium strumarium L.; conditions: Xanthium strumarium, post-emergence, 0.3 Kg/Ha, after 12-17 days, read-out: POSTEMERGENCE HERBICIDAL ACTIVITY (% CONTROL) XANPE
Experimental: as §1, §2, §3, §4, §5

blackgrass [16] = assay: postemergence herbicidal activity on blackgrass; format: in vivo, Aloepecurus myosuroides; conditions: Alopecurus myosuroides, post-emergence, 0.3 Kg/Ha, after 12-17 days, read-out: POSTEMERGENCE HERBICIDAL ACTIVITY (% CONTROL) ALOMY
Experimental: as §1, §2, §3, §4, §5

green foxtail [17] = assay: postemergence herbicidal activity on green foxtail; format: in vivo; conditions: Setaria viridis, post-emergence, 0.3 Kg/Ha, after 12-17 days, read-out: POSTEMERGENCE HERBICIDAL ACTIVITY (% CONTROL) SETVI
Experimental: as §1, §2, §3, §4, §5

johnsongrass [18] = assay: postemergence herbicidal activity on johnsongrass; format: in vivo; conditions: Sorghum halepense, post-emergence, 0.3 Kg/Ha, after 12-17 days, read-out: POSTEMERGENCE HERBICIDAL ACTIVITY (% CONTROL) SORHA
Experimental: as §1, §2, §3, §4, §5

Row | SMILES | activity at 300 g/ha (soybean [1]) [%] | activity at 300 g/ha (wheat [2]) [%] | activity at 300 g/ha (corn [3]) [%] | activity at 300 g/ha (velvetleaf [4]) [%] | activity at 300 g/ha (morningglory [5]) [%] | activity at 300 g/ha (chickweed [6]) [%] | activity at 300 g/ha (blackgrass [7]) [%] | activity at 300 g/ha (green foxtail [8]) [%] | activity at 300 g/ha (johnsongrass [9]) [%] | activity at 300 g/ha (soybean [10]) [%] | activity at 300 g/ha (wheat [11]) [%] | activity at 300 g/ha (corn [12]) [%] | activity at 300 g/ha (velvetleaf [13]) [%] | activity at 300 g/ha (morningglory [14]) [%] | activity at 300 g/ha (chickweed [15]) [%] | activity at 300 g/ha (cocklebur) [%] | activity at 300 g/ha (blackgrass [16]) [%] | activity at 300 g/ha (green foxtail [17]) [%] | activity at 300 g/ha (johnsongrass [18]) [%]
1 | CNC(=O)OCC(Cl)Cc1cc(-n2nc(C)n(C(F)F)c2=O)c(F)cc1Cl (stereo not drawn) [Compound 31, 2-CHLORO-1-[2-CHLORO-4-FLUORO-5-[4DIFLUOROMETHYL-4,5-DIHYDRO-3-METHYL-1,2,4-TRIAZOL-5(1H)-ON-1-YL]PHENYL]PROPAN-3-YL METHYLCARBAMATE] | 100 | 70 | 90 | 100 | 100 | 100 | 70 | 100 | 100 | 95 | 50 | 85 | 100 | 100 | 100 | 100 | 75 | 100 | 100
2 | CCNC(=O)OCC(Cl)Cc1cc(-n2nc(C)n(C(F)F)c2=O)c(F)cc1Cl (stereo not drawn) [Compound 32] | 100 | 40 | 70 | 100 | 95 | 90 | 75 | 100 | 95 | 95 | 40 | 80 | 100 | 95 | 100 | 100 | 70 | 100 | 90
3 | Cc1nn(-c2cc(CC(Cl)COC(=O)NC(C)(C)C)c(Cl)cc2F)c(=O)n1C(F)F (stereo not drawn) [Compound 33] | 60 | 20 | 80 | 100 | 70 | 90 | 70 | 100 | 80 | 90 | 40 | 80 | 100 | 100 | 80 | 100 | 60 | 100 | 80
